From ChEMBL document CHEMBL2331203, “Optimization of inhibitors of the tyrosine kinase EphB4. 2. Cellular potency improvement and binding mode validation by X-ray crystallography” (J Med Chem, 2013)

Tests used:
[1] = Cytotoxicity against human RXF 393NL cells after 4 days by propidium iodide staining; settings: 96 h
[2] = Apparent permeability from basolateral to apical side in human Caco2 cells after 2 hrs by LC-MS/MS analysis; assay type: ADME, cell-based; settings: Caco-2
[3] = target: Proto-oncogene tyrosine-protein kinase Src (Homo sapiens, UniProt P12931)
Sequence of Proto-oncogene tyrosine-protein kinase Src (P12931 2-536 limits assumed): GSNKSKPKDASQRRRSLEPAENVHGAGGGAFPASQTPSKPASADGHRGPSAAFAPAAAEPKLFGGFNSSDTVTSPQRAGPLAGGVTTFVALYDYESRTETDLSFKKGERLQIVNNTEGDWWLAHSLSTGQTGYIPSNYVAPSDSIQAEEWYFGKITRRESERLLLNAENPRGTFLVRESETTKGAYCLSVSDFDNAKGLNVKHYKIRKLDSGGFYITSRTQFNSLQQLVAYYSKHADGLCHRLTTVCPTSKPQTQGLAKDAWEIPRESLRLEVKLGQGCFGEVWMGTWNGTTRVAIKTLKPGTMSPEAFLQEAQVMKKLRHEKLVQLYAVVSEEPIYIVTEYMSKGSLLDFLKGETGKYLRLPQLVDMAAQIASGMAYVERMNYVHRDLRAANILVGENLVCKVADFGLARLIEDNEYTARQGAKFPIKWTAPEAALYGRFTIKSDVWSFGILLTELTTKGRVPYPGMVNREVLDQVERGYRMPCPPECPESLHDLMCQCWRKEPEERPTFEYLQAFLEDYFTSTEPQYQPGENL
Description: Inhibition of Src (unknown origin) using [gamma-33P]ATP after 30 mins by radiometric assay

DU-145 = test: Cytotoxicity against human PRXF DU145 cells after 4 days by propidium iodide staining; settings: DU-145, 96 h
[4] = target: Ephrin type-A receptor 4 (Homo sapiens) (UniProt P54764); test: Inhibition of human Eph-A4 using [gamma-33P]ATP assessed as residual activity at 3 uM after 30 mins by radiometric assay
Sequence of Ephrin type-A receptor 4 (Homo sapiens) (P54764 whole entry): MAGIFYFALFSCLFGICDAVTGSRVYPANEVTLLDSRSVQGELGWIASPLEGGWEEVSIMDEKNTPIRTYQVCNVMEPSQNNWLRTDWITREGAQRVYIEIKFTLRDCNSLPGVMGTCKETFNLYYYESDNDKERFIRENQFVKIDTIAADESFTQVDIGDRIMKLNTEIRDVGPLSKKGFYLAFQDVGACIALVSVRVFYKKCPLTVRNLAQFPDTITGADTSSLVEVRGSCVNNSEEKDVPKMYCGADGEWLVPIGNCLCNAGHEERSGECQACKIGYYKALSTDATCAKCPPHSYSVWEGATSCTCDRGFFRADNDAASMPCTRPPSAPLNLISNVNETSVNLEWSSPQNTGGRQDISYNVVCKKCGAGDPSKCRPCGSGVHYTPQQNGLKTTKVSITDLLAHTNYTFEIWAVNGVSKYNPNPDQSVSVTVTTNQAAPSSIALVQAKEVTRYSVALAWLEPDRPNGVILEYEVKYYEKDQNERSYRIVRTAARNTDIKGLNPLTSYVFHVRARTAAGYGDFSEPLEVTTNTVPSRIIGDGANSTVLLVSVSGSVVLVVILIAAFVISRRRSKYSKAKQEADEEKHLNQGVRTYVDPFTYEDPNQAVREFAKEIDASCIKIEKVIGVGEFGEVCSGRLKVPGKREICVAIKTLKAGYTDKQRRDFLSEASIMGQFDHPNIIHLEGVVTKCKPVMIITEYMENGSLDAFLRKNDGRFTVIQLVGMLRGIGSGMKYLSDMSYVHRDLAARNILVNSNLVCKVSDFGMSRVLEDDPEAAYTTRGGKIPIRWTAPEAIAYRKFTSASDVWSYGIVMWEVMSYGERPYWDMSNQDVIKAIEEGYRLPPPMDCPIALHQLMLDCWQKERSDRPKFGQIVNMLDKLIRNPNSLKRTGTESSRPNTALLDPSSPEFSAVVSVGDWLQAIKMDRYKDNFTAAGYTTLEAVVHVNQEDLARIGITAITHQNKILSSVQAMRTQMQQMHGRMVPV

[5] = Cytotoxicity against human PAXF 1657L cells after 4 days by propidium iodide staining; settings: 96 h
[6] = target: Ephrin type-A receptor 2 (Homo sapiens) (UniProt P29317); test: Inhibition of human Eph-A2 using [gamma-33P]ATP assessed as residual activity at 3 uM after 30 mins by radiometric assay
Sequence of Ephrin type-A receptor 2 (Homo sapiens) (P29317 whole entry): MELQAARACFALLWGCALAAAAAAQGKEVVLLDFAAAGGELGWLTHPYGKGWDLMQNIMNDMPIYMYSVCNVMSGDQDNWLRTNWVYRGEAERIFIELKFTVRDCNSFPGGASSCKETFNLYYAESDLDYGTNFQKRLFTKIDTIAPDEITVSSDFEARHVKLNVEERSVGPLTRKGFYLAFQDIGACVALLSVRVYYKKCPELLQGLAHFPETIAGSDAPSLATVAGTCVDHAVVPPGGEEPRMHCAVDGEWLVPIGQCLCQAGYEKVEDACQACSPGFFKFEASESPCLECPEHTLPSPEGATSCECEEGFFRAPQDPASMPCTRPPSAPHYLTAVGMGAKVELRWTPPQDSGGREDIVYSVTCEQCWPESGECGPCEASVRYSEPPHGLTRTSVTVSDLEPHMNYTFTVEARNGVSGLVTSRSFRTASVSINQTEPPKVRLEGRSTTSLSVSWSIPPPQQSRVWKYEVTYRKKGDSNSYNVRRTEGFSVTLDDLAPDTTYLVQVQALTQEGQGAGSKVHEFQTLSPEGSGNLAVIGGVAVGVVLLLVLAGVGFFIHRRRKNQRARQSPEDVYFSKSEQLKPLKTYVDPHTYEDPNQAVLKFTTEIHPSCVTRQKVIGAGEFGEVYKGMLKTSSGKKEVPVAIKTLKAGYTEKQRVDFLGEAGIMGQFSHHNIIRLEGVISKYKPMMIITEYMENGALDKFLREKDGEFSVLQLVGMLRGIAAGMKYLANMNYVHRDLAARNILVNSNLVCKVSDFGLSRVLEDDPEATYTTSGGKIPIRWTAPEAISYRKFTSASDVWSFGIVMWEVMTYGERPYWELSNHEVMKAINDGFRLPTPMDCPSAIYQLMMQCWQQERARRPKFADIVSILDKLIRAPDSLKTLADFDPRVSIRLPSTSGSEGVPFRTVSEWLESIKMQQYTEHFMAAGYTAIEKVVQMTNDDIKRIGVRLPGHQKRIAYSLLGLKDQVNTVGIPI

[7] = Cytotoxicity against human CXF 1103L cells after 4 days by propidium iodide staining; settings: 96 h
[8] = target: Receptor-interacting serine/threonine-protein kinase 2 (Homo sapiens) (UniProt O43353); test: Inhibition of human RIPK2 using [gamma-33P]ATP assessed as residual activity at 3 uM after 30 mins by radiometric assay
Sequence of Receptor-interacting serine/threonine-protein kinase 2 (Homo sapiens) (O43353 whole entry): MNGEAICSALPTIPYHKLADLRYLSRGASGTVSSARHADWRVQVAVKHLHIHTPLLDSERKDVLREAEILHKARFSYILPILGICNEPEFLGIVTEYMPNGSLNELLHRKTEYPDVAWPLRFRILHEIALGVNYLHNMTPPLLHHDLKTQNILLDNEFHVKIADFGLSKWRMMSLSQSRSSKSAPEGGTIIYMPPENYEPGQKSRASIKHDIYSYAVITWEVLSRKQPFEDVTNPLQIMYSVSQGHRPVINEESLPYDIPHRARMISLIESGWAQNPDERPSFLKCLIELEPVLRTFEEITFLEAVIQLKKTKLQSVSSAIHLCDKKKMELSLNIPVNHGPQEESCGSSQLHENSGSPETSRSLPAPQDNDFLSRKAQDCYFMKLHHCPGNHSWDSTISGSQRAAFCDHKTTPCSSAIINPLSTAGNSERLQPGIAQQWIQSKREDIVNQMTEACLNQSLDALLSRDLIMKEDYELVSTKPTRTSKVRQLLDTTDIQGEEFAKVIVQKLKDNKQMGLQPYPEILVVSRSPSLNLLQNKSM

[9] = target: T1, Ephrin type-B receptor 1 (Homo sapiens) (UniProt P54762); test: Inhibition of human Eph-B1 using [gamma-33P]ATP assessed as residual activity at 3 uM after 30 mins by radiometric assay
T1 sequence (whole entry): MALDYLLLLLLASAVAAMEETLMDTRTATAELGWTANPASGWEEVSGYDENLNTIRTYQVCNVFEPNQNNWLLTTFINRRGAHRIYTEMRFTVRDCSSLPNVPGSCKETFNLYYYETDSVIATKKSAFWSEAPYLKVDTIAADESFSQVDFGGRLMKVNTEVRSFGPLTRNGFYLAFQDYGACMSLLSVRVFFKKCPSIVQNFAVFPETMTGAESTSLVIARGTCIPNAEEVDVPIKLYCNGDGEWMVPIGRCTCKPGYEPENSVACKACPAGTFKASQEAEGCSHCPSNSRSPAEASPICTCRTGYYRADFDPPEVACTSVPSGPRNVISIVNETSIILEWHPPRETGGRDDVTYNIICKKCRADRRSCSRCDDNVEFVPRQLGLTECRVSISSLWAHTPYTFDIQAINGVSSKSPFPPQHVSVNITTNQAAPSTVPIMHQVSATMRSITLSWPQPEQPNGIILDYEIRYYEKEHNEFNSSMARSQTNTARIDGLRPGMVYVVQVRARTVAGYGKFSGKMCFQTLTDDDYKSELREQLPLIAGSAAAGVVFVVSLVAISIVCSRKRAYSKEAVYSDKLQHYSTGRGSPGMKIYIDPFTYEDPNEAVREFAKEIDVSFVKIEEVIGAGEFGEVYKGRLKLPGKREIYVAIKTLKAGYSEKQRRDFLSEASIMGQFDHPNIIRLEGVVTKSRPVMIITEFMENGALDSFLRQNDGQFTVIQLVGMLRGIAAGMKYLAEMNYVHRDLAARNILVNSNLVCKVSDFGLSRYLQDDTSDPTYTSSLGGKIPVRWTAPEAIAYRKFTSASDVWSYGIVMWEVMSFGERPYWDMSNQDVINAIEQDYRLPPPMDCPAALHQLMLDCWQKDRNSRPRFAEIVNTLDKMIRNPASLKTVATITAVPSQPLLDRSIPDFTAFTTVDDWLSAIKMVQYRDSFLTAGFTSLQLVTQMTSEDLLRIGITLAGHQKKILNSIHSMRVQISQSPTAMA

[10] = target: Tyrosine-protein kinase ABL1 (Homo sapiens, UniProt P00519)
Sequence of Tyrosine-protein kinase ABL1 (P00519 whole entry): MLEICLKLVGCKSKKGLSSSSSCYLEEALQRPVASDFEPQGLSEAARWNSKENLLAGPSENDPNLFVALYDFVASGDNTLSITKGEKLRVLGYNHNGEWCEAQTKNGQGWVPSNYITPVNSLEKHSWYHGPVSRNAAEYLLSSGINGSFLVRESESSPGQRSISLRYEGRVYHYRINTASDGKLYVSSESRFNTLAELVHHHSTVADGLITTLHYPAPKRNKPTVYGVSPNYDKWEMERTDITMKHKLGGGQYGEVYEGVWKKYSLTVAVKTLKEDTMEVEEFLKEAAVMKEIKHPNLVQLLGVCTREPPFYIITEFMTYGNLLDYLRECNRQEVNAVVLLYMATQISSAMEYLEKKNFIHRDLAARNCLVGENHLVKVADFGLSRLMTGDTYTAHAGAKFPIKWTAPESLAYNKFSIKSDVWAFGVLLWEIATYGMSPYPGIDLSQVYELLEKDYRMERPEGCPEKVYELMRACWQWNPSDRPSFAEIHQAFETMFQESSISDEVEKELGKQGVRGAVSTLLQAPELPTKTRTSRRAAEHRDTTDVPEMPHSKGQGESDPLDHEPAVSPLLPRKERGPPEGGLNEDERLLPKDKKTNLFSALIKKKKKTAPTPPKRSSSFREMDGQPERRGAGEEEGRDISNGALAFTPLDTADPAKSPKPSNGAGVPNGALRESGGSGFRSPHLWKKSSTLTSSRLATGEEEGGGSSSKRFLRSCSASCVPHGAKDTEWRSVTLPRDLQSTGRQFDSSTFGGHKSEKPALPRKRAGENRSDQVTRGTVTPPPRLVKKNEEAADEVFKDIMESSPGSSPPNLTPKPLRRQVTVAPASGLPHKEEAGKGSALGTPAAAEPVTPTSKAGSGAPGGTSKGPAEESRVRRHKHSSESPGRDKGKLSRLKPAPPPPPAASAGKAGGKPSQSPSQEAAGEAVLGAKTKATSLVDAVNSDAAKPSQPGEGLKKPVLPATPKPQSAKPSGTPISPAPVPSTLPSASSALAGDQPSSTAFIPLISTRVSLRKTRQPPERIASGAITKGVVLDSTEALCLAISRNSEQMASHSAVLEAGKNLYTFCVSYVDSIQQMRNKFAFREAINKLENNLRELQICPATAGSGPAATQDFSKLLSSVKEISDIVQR
Description: Inhibition of Abl (unknown origin) using [gamma-33P]ATP after 30 mins by radiometric assay

Ephrin type-B receptor 4 = target: T2, Ephrin type-B receptor 4 (Homo sapiens, UniProt P54760)
T2 sequence (P54760 whole entry): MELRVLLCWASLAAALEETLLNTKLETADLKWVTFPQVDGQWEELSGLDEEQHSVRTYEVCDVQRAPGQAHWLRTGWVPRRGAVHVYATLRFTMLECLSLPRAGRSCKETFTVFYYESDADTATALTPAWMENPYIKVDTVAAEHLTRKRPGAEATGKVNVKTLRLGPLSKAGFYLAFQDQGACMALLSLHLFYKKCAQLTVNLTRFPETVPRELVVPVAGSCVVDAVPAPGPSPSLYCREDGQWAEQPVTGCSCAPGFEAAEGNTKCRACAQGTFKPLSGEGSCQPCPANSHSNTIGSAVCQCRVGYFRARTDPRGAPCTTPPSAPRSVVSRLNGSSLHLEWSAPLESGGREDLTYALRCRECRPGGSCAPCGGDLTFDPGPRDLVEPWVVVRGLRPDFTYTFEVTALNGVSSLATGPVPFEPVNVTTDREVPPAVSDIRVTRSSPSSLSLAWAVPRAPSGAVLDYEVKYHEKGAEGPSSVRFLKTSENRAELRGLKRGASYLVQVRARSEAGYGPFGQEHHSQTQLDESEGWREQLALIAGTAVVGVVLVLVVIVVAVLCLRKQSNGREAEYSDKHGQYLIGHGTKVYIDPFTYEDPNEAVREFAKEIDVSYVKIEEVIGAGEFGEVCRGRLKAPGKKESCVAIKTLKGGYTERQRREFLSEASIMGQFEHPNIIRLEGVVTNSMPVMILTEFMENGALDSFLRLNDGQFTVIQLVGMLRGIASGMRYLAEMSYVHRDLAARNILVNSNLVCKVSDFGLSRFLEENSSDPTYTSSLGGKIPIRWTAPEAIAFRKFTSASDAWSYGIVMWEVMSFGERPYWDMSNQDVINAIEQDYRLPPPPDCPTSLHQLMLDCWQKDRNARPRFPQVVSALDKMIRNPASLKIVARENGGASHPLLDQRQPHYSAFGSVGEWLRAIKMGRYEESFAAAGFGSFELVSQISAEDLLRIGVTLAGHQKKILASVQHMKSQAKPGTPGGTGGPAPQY
Description: Inhibition of EphB4 (unknown origin) transfected in CHO cells using [gamma-33P]ATP by radiometric assay

[11] = Apparent permeability from apical to basolateral side in human Caco2 cells after 2 hrs by LC-MS/MS analysis; assay type: ADME, cell-based; settings: Caco-2
in vitro = settings: human, Caco-2
Description: Efflux ratio of apparent permeability from basolateral to apical side to apical to basolateral side in human Caco2 cells

Papp B→A at 2 h [2]: 28.1 ×10⁻⁶ cm/s
IC50 [3]: 0.071 µM
Activity [4]: 5%
Activity [6]: 6%
Activity [8]: 12%
Activity [9]: 10%
IC50 [10]: 0.578 µM
IC50 (Ephrin type-B receptor 4): 0.082 µM
Papp A→B at 2 h [11]: 42.7 ×10⁻⁶ cm/s
efflux ratio (in vitro): 0.7
SMILES: CCCCn1c(-c2ccccc2C)cn2c3c(=O)[nH]c(=O)n(C)c3nc12
IC50 [1]: 7.6 µM
IC50 (DU-145): 11.2 µM
IC50 [5]: 8.1 µM
IC50 [7]: 4.61 µM
